Measured values: patent US9193714B2, “Fluorinated estrogen receptor modulators and uses thereof” (priority 2011, dated 2015)
Read-outs that look alike come from different tables or passages of the source.

What was measured:
MCF-7 cells = assay: Breast Cancer Cell Viability Assay (MCF7 Viability Assay); format: cell-based; settings: for IC50: Homo sapiens, MCF7, 120 h, read-out: MCF7 Viability Assay IC50
Protocol: MCF-7 cells were adjusted to a concentration of 20,000 cells per mL in RPMI containing 10% FBS and 20 mM HEPES. 16 microliters of the cell suspension (320 cells) was added to each well of a 384 well plate, and the cells were incubated overnight to allow the cells to adhere. The following day an eleven point, serial semilog dilution of each compound was added to the cells in 16 μL at a final concentration ranging from 0.3-0.000003 μM. After 5 days' compound exposure, 16 μL of CellTiter-GLo (Promega, Madison Wis.) was added to the cells the relative luminescence units (RLUs) of each well was determined. CellTiter-Glo added to 32 μL of medium without cells was used to obtain a background value. The Percent viability of each sample was determined as follows: (RLU sample-RLU background/RLU untreated cells-RLU background)×100=% viability.

ER-α = molecular target: T1, ER-α (Homo sapiens, UniProt P03372); assay: Breast Cancer Cell ER-α in Cell Western Assay (SP1); format: cell-based; settings: MCF7, read-out: ER In-Cell Western Assay (SP1); Max Response
T1 construct: endogenous in cells; host or cells: MCF-7
T1 sequence (P03372 whole entry): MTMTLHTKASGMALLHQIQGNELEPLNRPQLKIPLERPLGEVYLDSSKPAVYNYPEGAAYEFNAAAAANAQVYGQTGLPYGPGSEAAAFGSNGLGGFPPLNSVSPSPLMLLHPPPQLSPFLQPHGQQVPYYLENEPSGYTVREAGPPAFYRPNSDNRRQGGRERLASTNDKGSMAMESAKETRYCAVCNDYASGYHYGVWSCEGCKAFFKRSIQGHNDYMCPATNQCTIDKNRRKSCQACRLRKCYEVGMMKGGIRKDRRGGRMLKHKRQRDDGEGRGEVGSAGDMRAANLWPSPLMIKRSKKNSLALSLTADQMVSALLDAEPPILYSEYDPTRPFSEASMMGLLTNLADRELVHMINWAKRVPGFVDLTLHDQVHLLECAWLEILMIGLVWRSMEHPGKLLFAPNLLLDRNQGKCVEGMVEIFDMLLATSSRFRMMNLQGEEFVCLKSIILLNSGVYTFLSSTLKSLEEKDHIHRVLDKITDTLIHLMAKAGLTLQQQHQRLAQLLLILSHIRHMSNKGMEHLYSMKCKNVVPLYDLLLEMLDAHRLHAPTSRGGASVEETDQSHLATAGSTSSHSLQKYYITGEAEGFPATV
Protocol: MCF-7 cells were adjusted to a concentration of 200,000 cells per mL in RPMI containing 10% charcoal-stripped FBS and 20 mM HEPES. 16 microliters of the cell suspension (3200 cells) was added to each well of a poly-D-lysine 384 well plate, and the cells were incubated overnight to allow the cells to adhere. The following day an eleven point, serial semilog dilution of each compound was added to the cells in 16 μL at a final concentration ranging from 0.3-0.000003 μM. At 4 or 24 hr post compound addition, the cells were fixed (10% formalin in PBS) for 20 minutes. Cells were permeablized in PBS 0.1% Triton and blocked with LICOR blocking buffer (50 μl/well, 90′). The wells were then incubated overnight at 4° C. with SP1 rabbit monoclonal Ab (Thermo Scientific) diluted 1:1000 in LICOR blocking buffer/0.1% Tween-20. Wells which were treated with blocking buffer with Tween but no antibody were used as a background control. Wells were washed with 0.1% Tween-20/PBS and then incubated in goat anti-rabbit IRDye™ 800 CW (LICOR Inc.; 1:1000) and DRAQ5 DNA dye (1:2000 for 2 mM stock) diluted in LICOR blocking buffer containing 0.1% Tween-20 and 0.01% SDS for 60 minutes. Cells were washed (50 μl/well, 5′ each) in 0.1% Tween-20/PBS. Plates were scanned on a LICOR Odyssey infrared imaging system. Integrated intensities in the 800 nm channel and 700 nm channel were measured to determine levels of ER and DNA respectively. Percent ER levels were determined as follows: (Integrated intensity 800 nm sample/integrated intensity 700 nm sample)/(Integrated intensity 800 nm untreated cells/integrated intensity 700 nm untreated cells)×100=% ER levels.

[1] = MCF-7 cells, 5 days' compound exposure, CellTiter-Glo

Compound	IC50 (MCF-7 cells; [1]) [nM]	MCF7 Viability Assay Max Response (MCF-7 cells; [1])	Emax (ER-α) [%]	IC50 (MCF-7 cells) [nM]
CC1=C(c2ccc(C#N)cc2)C(c2ccc(OC[C@H](C)N3CC[C@@H](CF)C3)cc2)Oc2ccc(O)cc21 (stereo partly drawn) [Example 16]	> 1	++ (a single % value ≧ 50%)	> 85	–
CC1=C(c2cccc(O)c2)C(c2ccc(OCCN3CCC(F)CC3)cc2)Oc2ccc(O)cc21 (stereo not drawn) [Example 17, 2-(4-(2-(4-Fluoropiperidin-1-yl)ethoxy)phenyl)-3-(3-hydroxyphenyl)-4-methyl-2H-chromen-6-ol]	< 1	++ (a single % value ≧ 50%)	60 to 85	–
CC1=C(c2cccc(O)c2)C(c2ccc(OCCN3CCC[C@H]3CF)cc2)Oc2ccc(O)cc21 (stereo partly drawn) [Example 18, 2-(4-(2-((S)-2-(Fluoromethyl)pyrrolidin-1-yl)ethoxy)phenyl)-3-(3-hydroxyphenyl)-4-methyl-2H-chromen-6-ol]	–	++ (a single % value ≧ 50%)	60 to 85	> 1
CC1=C(c2cccc(O)c2)C(c2ccc(OCCN3CCC[C@@H](CF)C3)cc2)Oc2ccc(O)cc21 (stereo partly drawn) [Example 20, 2-(4-(2-((R)-3-(Fluoromethyl)piperidin-1-yl)ethoxy)phenyl)-3-(3-hydroxyphenyl)-4-methyl-2H-chromen-6-ol]	< 1	+ (a single % value < 50%)	< 60	–
CC1=C(c2cccc(O)c2)C(c2ccc(OCCN3CC[C@@H](C(F)F)C3)cc2)Oc2ccc(O)cc21 (stereo partly drawn) [Example 21, (R)-2-(4-(2-(3-(Difluoromethyl)pyrrolidin-1-yl)ethoxy)phenyl)-3-(3-hydroxyphenyl)-4-methyl-2H-chromen-6-ol]	–	++ (a single % value ≧ 50%)	> 85	< 1
CC1=C(c2cccc(O)c2)C(c2ccc(OCCN(C)CCCF)cc2)Oc2ccc(O)cc21 (stereo not drawn) [Example 22, 2-(4-(2-((3-Fluoropropyl)(methyl)amino)ethoxy)phenyl)-3-(3-hydroxyphenyl)-4-methyl-2H-chromen-6-ol]	< 1	+ (a single % value < 50%)	< 60	–
CCN(CCF)CCOc1ccc(C2Oc3ccc(O)cc3C(C)=C2c2cccc(O)c2)cc1 (stereo not drawn) [Example 23, 2-(4-(2-(Ethyl(2-fluoroethyl)amino)ethoxy)phenyl)-3-(3-hydroxyphenyl)-4-methyl-2H-chromen-6-ol]	> 1	++ (a single % value ≧ 50%)	< 60	–
CCN(CCCF)CCOc1ccc(C2Oc3ccc(O)cc3C(C)=C2c2cccc(O)c2)cc1 (stereo not drawn) [Example 24, 2-(4-(2-(Ethyl(3-fluoropropyl)amino)ethoxy)phenyl)-3-(3-hydroxyphenyl)-4-methyl-2H-chromen-6-ol]	< 1	++ (a single % value ≧ 50%)	< 60	–
CCN(CCOc1ccc(C2Oc3ccc(O)cc3C(C)=C2c2cccc(O)c2)cc1)CCC(F)(F)F (stereo not drawn) [Example 25, 2-(4-(2-(Ethyl(3,3,3-trifluoropropyl)amino)ethoxy)phenyl)-3-(3-hydroxyphenyl)-4-methyl-2H-chromen-6-ol]	> 1	+ (a single % value < 50%)	< 60	–
CC1=C(c2ccc(F)cc2)C(c2ccc(OCCN3CC[C@@H](CF)C3)cc2)Oc2ccc(O)cc21 (stereo partly drawn) [Example 26, 2-(4-(2-((R)-3-(Fluoromethyl)pyrrolidin-1-yl)ethoxy)phenyl)-3-(4-fluorophenyl)-4-methyl-2H-chromen-6-ol]	> 1	++ (a single % value ≧ 50%)	> 85	–
CC1=C(c2ccc(F)cc2)C(c2ccc(OC[C@H](C)N3CC[C@@H](CF)C3)cc2)Oc2ccc(O)cc21 (stereo partly drawn) [Example 27]	> 1	++ (a single % value ≧ 50%)	> 85	–
Cc1c(-c2ccc(O)cc2)n(Cc2ccc(OCCN3CC[C@@H](CF)C3)cc2)c2ccc(O)cc12 [Example 28, (R)-1-(4-(2-(3-(Fluoromethyl)pyrrolidin-1-yl)ethoxy)benzyl)-2-(4-hydroxyphenyl)-3-methyl-1H-indol-5-ol]	< 1	++ (a single % value ≧ 50%)	> 85	–
